Source: patent US20230085307A1, “PYRIDAZINONE COMPOUND AND HERBICIDE” (NISSAN CHEMICAL CORPORATION, priority 2019, published 2023)

The compounds below were run on persian speedwell (assay: Test Example 4: herbicidal effect by soil treatment (Table 19, symbol R)). Details: AAH 320 g/ha.
Assay type: in vivo, Persian speedwell (Veronica persica)
In short: (§1)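 Seeds were sown in sterilized diluvial soil and covered with about 1.5 cm of soil. An emulsion formulation diluted with water to a predetermined herbicide amount was sprayed evenly onto the soil surface. Plants grew in a greenhouse at 25° C. to 30° C., and the effect was scored three weeks after application using criteria from an earlier test.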

With `COc1nn(C)c(=O)c(-c2c(-c3ccc([N+](=O)[O-])cc3)sc3ccccc23)c1O` [1-168] as the compound, how does the “R: persian speedwell, herbicidal effect rating” value read?
Its value is 3 (Herbicidal rate of 40% or more and less than 70%).

Each compound was assayed on Chinese sprangletop (assay: Test Example 3: herbicidal effect by foliage application, Wagner pot (Table 18, symbol D)). Details: 320 g/ha.
Assay type: in vivo, chinese sprangletop (Leptochloa chinensis)
In short: (§2)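 Plants were sown in alluvial soil held under 0.1–0.5 cm standing water and grown 14 days in a greenhouse at 25–30 °C. An emulsifiable formulation, water-diluted to the set dose, was then sprayed onto the foliage, and effects were scored three weeks later using previously defined criteria.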

For `COc1nn(C)c(=O)c(-c2c(-c3ccc([N+](=O)[O-])cc3)sc3ccccc23)c1O` [1-168], which “herbicidal effect on D (Chinese sprangletop), rating 0-5” value is on record?
Its value is 0 (Herbicidal rate of 5% or less (almost no effect)).

Each compound was assayed on rice flat sedge (assay: Test Example 3: herbicidal effect by foliage application, Wagner pot (Table 18, symbol E)). Details: 320 g/ha.
Assay type: in vivo, rice flat sedge (Cyperus iria)
In short: as §2

For `COc1nn(C)c(=O)c(-c2c(-c3ccc([N+](=O)[O-])cc3)sc3ccccc23)c1O` [1-168], which “herbicidal effect on E (rice flat sedge), rating 0-5” value is on record?
Its value is 3 (Herbicidal rate of 40% or more and less than 70%).

What follows are compounds tested on green foxtail (assay: Test Example 4: herbicidal effect by soil treatment (Table 19, symbol G)). Details: AAH 320 g/ha.
Assay type: in vivo, green foxtail (Setaria viridis)
In short: as §1

Which “G: green foxtail, herbicidal effect rating” value does the source give for `COc1nn(C)c(=O)c(-c2c(-c3ccc([N+](=O)[O-])cc3)sc3ccccc23)c1O` [1-168] here?
The value was 0 (Herbicidal rate of 5% or less (almost no effect)).

These compounds were tested on velvetleaf (assay: Test Example 5: herbicidal effect by foliage application, plastic box (Table 20, symbol M)). Details: foliage application, AAH 320 g/ha, three weeks after application.
Assay type: in vivo, velvetleaf (Abutilon theophrasti)
In short: (§3)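 Plants sown in sterilized diluvial soil and grown 14 days in a greenhouse at 25° C to 30° C, then sprayed on the foliage with the compound's emulsion diluted in water to a predetermined herbicide amount. Injury to weeds and crops scored three weeks after application on a visual rating scale.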

For `COc1nn(C)c(=O)c(-c2c(-c3ccc([N+](=O)[O-])cc3)sc3ccccc23)c1O` [1-168], which “M: velvetleaf, herbicidal effect” value is on record?
The value was 4 (Herbicidal rate of 70% or more and less than 90%).

Each compound was assayed on lambsquarters (assay: Test Example 5: herbicidal effect by foliage application, plastic box (Table 20, symbol O)). Details: foliage application, AAH 320 g/ha, three weeks after application.
Assay type: in vivo, lambsquarters (Chenopodium album)
In short: as §3

Which “O: lambsquarters, herbicidal effect” value does the source give for `COc1nn(C)c(=O)c(-c2c(-c3ccc([N+](=O)[O-])cc3)sc3ccccc23)c1O` [1-168] here?
Its value is 4 (Herbicidal rate of 70% or more and less than 90%).

Each compound was assayed on green foxtail (assay: Test Example 5: herbicidal effect by foliage application, plastic box (Table 20, symbol G)). Details: foliage application, AAH 320 g/ha, three weeks after application.
Assay type: in vivo, green foxtail (Setaria viridis)
In short: as §3

`COc1nn(C)c(=O)c(-c2c(-c3ccc([N+](=O)[O-])cc3)sc3ccccc23)c1O` [1-168] was tested. Which “G: green foxtail, herbicidal effect” value did it give?
Its value is 3 (Herbicidal rate of 40% or more and less than 70%).

Each compound was assayed on chickweed (assay: Test Example 4: herbicidal effect by soil treatment (Table 19, symbol P)). Details: AAH 320 g/ha.
Assay type: in vivo, common chickweed (Stellaria media)
In short: as §1

Which “P: chickweed, herbicidal effect rating” value does the source give for `COc1nn(C)c(=O)c(-c2c(-c3ccc([N+](=O)[O-])cc3)sc3ccccc23)c1O` [1-168] here?
The value was 4 (Herbicidal rate of 70% or more and less than 90%).

What follows are compounds tested on barnyard grass (assay: Test Example 3: herbicidal effect by foliage application, Wagner pot (Table 18, symbol H)). Details: 320 g/ha.
Assay type: in vivo, barnyard grass (Echinochloa crus-galli)
In short: as §2

How did the “herbicidal effect on H (barnyard grass), rating 0-5” value turn out when `COc1nn(C)c(=O)c(-c2c(-c3ccc([N+](=O)[O-])cc3)sc3ccccc23)c1O` [1-168] was run?
Its value is 0 (Herbicidal rate of 5% or less (almost no effect)).

These compounds were tested on barnyard grass (assay: Test Example 4: herbicidal effect by soil treatment (Table 19, symbol H)). Details: AAH 320 g/ha.
Assay type: in vivo, barnyard grass (Echinochloa crus-galli)
In short: as §1

Which “H: barnyard grass, herbicidal effect rating” value does the source give for `COc1nn(C)c(=O)c(-c2c(-c3ccc([N+](=O)[O-])cc3)sc3ccccc23)c1O` [1-168] here?
The value was 0 (Herbicidal rate of 5% or less (almost no effect)).

The compounds below were run on southern crabgrass (assay: Test Example 5: herbicidal effect by foliage application, plastic box (Table 20, symbol F)). Details: foliage application, AAH 320 g/ha, three weeks after application.
Assay type: in vivo, southern crabgrass (Digitaria ciliaris)
In short: as §3

How did the “F: southern crabgrass, herbicidal effect” value turn out when `COc1nn(C)c(=O)c(-c2c(-c3ccc([N+](=O)[O-])cc3)sc3ccccc23)c1O` [1-168] was run?
Its value is 3 (Herbicidal rate of 40% or more and less than 70%).

These compounds were tested on Italian ryegrass (assay: Test Example 4: herbicidal effect by soil treatment (Table 19, symbol K)). Details: AAH 320 g/ha.
Assay type: in vivo, Italian ryegrass (Lolium multiflorum)
In short: as §1

Which “K: Italian ryegrass, herbicidal effect rating” value does the source give for `COc1nn(C)c(=O)c(-c2c(-c3ccc([N+](=O)[O-])cc3)sc3ccccc23)c1O` [1-168] here?
The value was 0 (Herbicidal rate of 5% or less (almost no effect)).

Each compound was assayed on lambsquarters (assay: Test Example 4: herbicidal effect by soil treatment (Table 19, symbol O)). Details: AAH 320 g/ha.
Assay type: in vivo, lambsquarters (Chenopodium album)
In short: as §1

For `COc1nn(C)c(=O)c(-c2c(-c3ccc([N+](=O)[O-])cc3)sc3ccccc23)c1O` [1-168], which “O: lambsquarters, herbicidal effect rating” value is on record?
The value was 0 (Herbicidal rate of 5% or less (almost no effect)).

The compounds below were run on barnyard grass (assay: Test Example 5: herbicidal effect by foliage application, plastic box (Table 20, symbol H)). Details: foliage application, AAH 320 g/ha, three weeks after application.
Assay type: in vivo, barnyard grass (Echinochloa crus-galli)
In short: as §3

Which “H: barnyard grass, herbicidal effect” value does the source give for `COc1nn(C)c(=O)c(-c2c(-c3ccc([N+](=O)[O-])cc3)sc3ccccc23)c1O` [1-168] here?
Its value is 2 (Herbicidal rate of 20% or more and less than 40%).

The compounds below were run on southern crabgrass (assay: Test Example 4: herbicidal effect by soil treatment (Table 19, symbol F)). Details: AAH 320 g/ha.
Assay type: in vivo, southern crabgrass (Digitaria ciliaris)
In short: as §1

Which “F: southern crabgrass, herbicidal effect rating” value does the source give for `COc1nn(C)c(=O)c(-c2c(-c3ccc([N+](=O)[O-])cc3)sc3ccccc23)c1O` [1-168] here?
Its value is 0 (Herbicidal rate of 5% or less (almost no effect)).

What follows are compounds tested on windgrass (assay: Test Example 5: herbicidal effect by foliage application, plastic box (Table 20, symbol L)). Details: foliage application, AAH 320 g/ha, three weeks after application.
Assay type: in vivo, windgrass (Apera spica-venti)
In short: as §3

`COc1nn(C)c(=O)c(-c2c(-c3ccc([N+](=O)[O-])cc3)sc3ccccc23)c1O` [1-168] was tested. Which “L: windgrass, herbicidal effect” value did it give?
The value was 0 (Herbicidal rate of 5% or less (almost no effect)).

These compounds were tested on blackgrass (assay: Test Example 5: herbicidal effect by foliage application, plastic box (Table 20, symbol J)). Details: foliage application, AAH 320 g/ha, three weeks after application.
Assay type: in vivo, blackgrass (Alopecurus myosuroides)
In short: as §3

How did the “J: blackgrass, herbicidal effect” value turn out when `COc1nn(C)c(=O)c(-c2c(-c3ccc([N+](=O)[O-])cc3)sc3ccccc23)c1O` [1-168] was run?
The value was 0 (Herbicidal rate of 5% or less (almost no effect)).

Each compound was assayed on Italian ryegrass (assay: Test Example 5: herbicidal effect by foliage application, plastic box (Table 20, symbol K)). Details: foliage application, AAH 320 g/ha, three weeks after application.
Assay type: in vivo, Italian ryegrass (Lolium multiflorum)
In short: as §3

`COc1nn(C)c(=O)c(-c2c(-c3ccc([N+](=O)[O-])cc3)sc3ccccc23)c1O` [1-168] was tested. Which “K: Italian ryegrass, herbicidal effect” value did it give?
The value was 2 (Herbicidal rate of 20% or more and less than 40%).

Each compound was assayed on velvetleaf (assay: Test Example 4: herbicidal effect by soil treatment (Table 19, symbol M)). Details: AAH 320 g/ha.
Assay type: in vivo, velvetleaf (Abutilon theophrasti)
In short: as §1

With `COc1nn(C)c(=O)c(-c2c(-c3ccc([N+](=O)[O-])cc3)sc3ccccc23)c1O` [1-168] as the compound, how does the “M: velvetleaf, herbicidal effect rating” value read?
The value was 0 (Herbicidal rate of 5% or less (almost no effect)).

The compounds below were run on windgrass (assay: Test Example 4: herbicidal effect by soil treatment (Table 19, symbol L)). Details: AAH 320 g/ha.
Assay type: in vivo, windgrass (Apera spica-venti)
In short: as §1

How did the “L: windgrass, herbicidal effect rating” value turn out when `COc1nn(C)c(=O)c(-c2c(-c3ccc([N+](=O)[O-])cc3)sc3ccccc23)c1O` [1-168] was run?
Its value is 0 (Herbicidal rate of 5% or less (almost no effect)).

These compounds were tested on persian speedwell (assay: Test Example 5: herbicidal effect by foliage application, plastic box (Table 20, symbol R)). Details: foliage application, AAH 320 g/ha, three weeks after application.
Assay type: in vivo, Persian speedwell (Veronica persica)
In short: as §3

`COc1nn(C)c(=O)c(-c2c(-c3ccc([N+](=O)[O-])cc3)sc3ccccc23)c1O` [1-168] was tested. Which “R: persian speedwell, herbicidal effect” value did it give?
Its value is 5 (Herbicidal rate of 90% or more (almost completely withered)).

Each compound was assayed on chickweed (assay: Test Example 5: herbicidal effect by foliage application, plastic box (Table 20, symbol P)). Details: foliage application, AAH 320 g/ha, three weeks after application.
Assay type: in vivo, common chickweed (Stellaria media)
In short: as §3

With `COc1nn(C)c(=O)c(-c2c(-c3ccc([N+](=O)[O-])cc3)sc3ccccc23)c1O` [1-168] as the compound, how does the “P: chickweed, herbicidal effect” value read?
Its value is 5 (Herbicidal rate of 90% or more (almost completely withered)).

These compounds were tested on redroot pigweed (assay: Test Example 5: herbicidal effect by foliage application, plastic box (Table 20, symbol N)). Details: foliage application, AAH 320 g/ha, three weeks after application.
Assay type: in vivo, redroot pigweed (Amaranthus retroflexus)
In short: as §3

Which “N: redroot pigweed, herbicidal effect” value does the source give for `COc1nn(C)c(=O)c(-c2c(-c3ccc([N+](=O)[O-])cc3)sc3ccccc23)c1O` [1-168] here?
The value was 5 (Herbicidal rate of 90% or more (almost completely withered)).

The compounds below were run on wild oat (assay: Test Example 5: herbicidal effect by foliage application, plastic box (Table 20, symbol I)). Details: foliage application, AAH 320 g/ha, three weeks after application.
Assay type: in vivo, wild oat (Avena fatua)
In short: as §3

For `COc1nn(C)c(=O)c(-c2c(-c3ccc([N+](=O)[O-])cc3)sc3ccccc23)c1O` [1-168], which “I: wild oat, herbicidal effect” value is on record?
Its value is 0 (Herbicidal rate of 5% or less (almost no effect)).

What follows are compounds tested on wild oat (assay: Test Example 4: herbicidal effect by soil treatment (Table 19, symbol I)). Details: AAH 320 g/ha.
Assay type: in vivo, wild oat (Avena fatua)
In short: as §1

`COc1nn(C)c(=O)c(-c2c(-c3ccc([N+](=O)[O-])cc3)sc3ccccc23)c1O` [1-168] was tested. Which “I: wild oat, herbicidal effect rating” value did it give?
The value was 0 (Herbicidal rate of 5% or less (almost no effect)).

These compounds were tested on blackgrass (assay: Test Example 4: herbicidal effect by soil treatment (Table 19, symbol J)). Details: AAH 320 g/ha.
Assay type: in vivo, blackgrass (Alopecurus myosuroides)
In short: as §1

For `COc1nn(C)c(=O)c(-c2c(-c3ccc([N+](=O)[O-])cc3)sc3ccccc23)c1O` [1-168], which “J: blackgrass, herbicidal effect rating” value is on record?
Its value is 0 (Herbicidal rate of 5% or less (almost no effect)).

The compounds below were run on redroot pigweed (assay: Test Example 4: herbicidal effect by soil treatment (Table 19, symbol N)). Details: AAH 320 g/ha.
Assay type: in vivo, redroot pigweed (Amaranthus retroflexus)
In short: as §1

With `COc1nn(C)c(=O)c(-c2c(-c3ccc([N+](=O)[O-])cc3)sc3ccccc23)c1O` [1-168] as the compound, how does the “N: redroot pigweed, herbicidal effect rating” value read?
Its value is 1 (Herbicidal rate of 5% or more and less than 20%).
